Experimental data taken from article PMC8151276, “An Integrated Approach toward NanoBRET Tracers for Analysis of GPCR Ligand Engagement” (Molecules, 2021).

Columns and labels:
Type in all cases: binding
[1] = biological target: T1, CCR4 (Homo sapiens, UniProt P51679); assay: NanoBRET screen HiBiT-CCR4 in HEK293
T1 construct: purchased Promega (in-house HiBiT-GPCR construct library, NanoBRET)
T1 sequence (P51679 1-360): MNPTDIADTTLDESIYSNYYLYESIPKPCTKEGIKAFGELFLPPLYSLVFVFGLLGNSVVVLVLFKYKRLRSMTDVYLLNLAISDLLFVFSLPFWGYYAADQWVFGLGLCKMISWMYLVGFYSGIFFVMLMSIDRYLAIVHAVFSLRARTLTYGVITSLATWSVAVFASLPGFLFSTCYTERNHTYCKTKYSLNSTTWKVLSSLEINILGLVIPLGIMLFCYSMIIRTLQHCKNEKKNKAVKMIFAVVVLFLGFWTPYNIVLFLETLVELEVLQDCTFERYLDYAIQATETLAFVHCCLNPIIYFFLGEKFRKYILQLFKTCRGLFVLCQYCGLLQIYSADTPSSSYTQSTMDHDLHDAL
Method: (§1) Each tracer candidate was screened across the entire library of HiBiT-GPCR constructs using NanoBRET as the detection modality. As depicted in Figure 4A, the specificity of interactions was evaluated through decrease in BRET due to competitive displacement of a bound tracer by excess parental compound. Each tracer was analyzed for binding to each HiBiT-GPCR fusion in the absence and in the presence of competing parental compound. Briefly, HEK293 cells were transfected with HiBiT-GPCR constructs diluted into promoterless DNA to reduce expression and maximize translocation to the cell surface. Each tracer candidate was then screened at concentrations of 1 μM and 0.1 μM across cells expressing these fusions. Cells were treated for 1.5 h with tracer either alone or in the presence of 20 μM competing parental compound (i.e., control). BRET was measured upon addition of purified LgBiT and subsequent complementation with HiBiT genetically fused to a GPCR. The specificity of interactions was assessed through a decrease in BRET signal due to competitive displacement of the bound tracer. To further gauge the robustness of these interactions, the fold response over the control (i.e., BRETtracer/BRETcontrol) was calculated. We chose a 1.5-fold response, which translates to ≥7-fold signal over noise as the minimal threshold required to score an interaction as positive. […]. Below we highlight the screening results obtained for our exemplary fluorescent tracers based on Clozapine, Amitriptyline and AZD1283.
(§2) HiBiT-GPCR DNA constructs were diluted in 10 mM Tris pH 8 to a final concentration of 0.01 μg/μL, arrayed in 96-well plates and stored at −20 °C. For transfection, HEK293 cells were suspended in Opti-MEM (without phenol red) supplemented with 2% fetal bovine serum (Seradigm) and 100 units/mL penicillin–streptomycin (Gibco) at a final concentration of 220,000 cells/mL and dispensed into white 96-well plates at 90 μL/well. Subsequent transfections and screens were carried using an Agilent Bravo Automated Liquid Handling Platform. First, the 96-well HiBiT DNA arrays were diluted 25-fold in Opti-MEM (without serum or phenol red) to a final concentration of 0.0004 μg/μL and 20 μL of the diluted DNAs were transferred into new 96-well plates. Next, promoterless carrier DNA (1 μg/μL) was diluted 25-fold (0.04 μg/μL) and then dispensed into the diluted arrays at 20 μL/well. Following brief mixing, Viafect transfection reagent (Promega) diluted 16-fold into Opti-MEM was dispensed into the plates at 40 μL/well. After mixing by pipetting, plates were incubated for 10 min on the pipetting station deck. The DNA-transfection reagent complexes were then added to plates containing cells. To facilitate the screen, 10 μL of DNA-transfection reagent complexes were added in duplicates to the top 4 and bottom 4 rows, resulting in two identical 48-well arrays per plate. Plates with transfected cells were incubated for 18–20 h at 37 °C/5% CO2. A screen of each tracer across the entire library using two different concentrations requires duplicate plates of transfected cells. Depending on the number of tracers being screened, transfections can be scaled up using the same ratios. The next day, for each tracer, four 20× screening solutions in tracer dilution buffer (Promega) were prepared: two duplicates at final concentration of 20 μM and two duplicates at a final concentration of 2 μM. A competing unmodified compound was added to one of each duplicate at a final concentration of 400 μM. The four resulting solutions were diluted 4-fold in Opti-MEM without serum or phenol red to generate 5× solutions (5 µM and 0.5 µM tracer +/− 100 μM competing compound). To screen the library, a BioTek MultiFlo FX liquid dispenser was used to dispense 22.5 µL of tracer solution to the top 4 rows and 22.5 µL tracer + competing compound solution to the 4 bottom rows. Plates were briefly mixed on an orbital shaker and incubated for 1.5 h at room temperature. […]

[2] = biological target: T2, HRH3 (Homo sapiens, UniProt Q9Y5N1); assay: NanoBRET screen HiBiT-HRH3 in HEK293
T2 construct: purchased Promega (in-house HiBiT-GPCR construct library, NanoBRET)
Method: as §1, §2

[3] = biological target: T3, PTGIR (Homo sapiens, UniProt P43119); assay: NanoBRET screen HiBiT-PTGIR in HEK293
T3 construct: purchased Promega (in-house HiBiT-GPCR construct library, NanoBRET)
Method: as §1, §2

[4] = biological target: T4, TBXA2R (Homo sapiens, UniProt P21731); assay: NanoBRET screen HiBiT-TBXA2R in HEK293
T4 construct: purchased Promega (in-house HiBiT-GPCR construct library, NanoBRET)
T4 sequence (P21731 1-343): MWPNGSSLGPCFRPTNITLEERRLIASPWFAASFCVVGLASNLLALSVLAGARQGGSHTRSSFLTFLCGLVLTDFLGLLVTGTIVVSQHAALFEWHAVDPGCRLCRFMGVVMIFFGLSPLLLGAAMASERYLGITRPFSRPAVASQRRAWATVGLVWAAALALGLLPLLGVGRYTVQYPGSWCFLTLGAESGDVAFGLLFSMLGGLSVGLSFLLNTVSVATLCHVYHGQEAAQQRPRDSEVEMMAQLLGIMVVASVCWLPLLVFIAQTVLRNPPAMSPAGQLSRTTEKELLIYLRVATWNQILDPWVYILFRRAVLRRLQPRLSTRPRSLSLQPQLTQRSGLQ
Method: as §1, §2

[5] = biological target: T5, SMO (Homo sapiens, UniProt Q99835); assay: NanoBRET screen HiBiT-SMO in HEK293
T5 construct: purchased Promega (in-house HiBiT-GPCR construct library, NanoBRET)
Method: as §1, §2

[6] = biological target: T6, CYSLTR2 (Homo sapiens, UniProt Q9NS75); assay: NanoBRET screen HiBiT-CYSLTR2 in HEK293
T6 construct: purchased Promega (in-house HiBiT-GPCR construct library, NanoBRET)
T6 sequence (Q9NS75 1-346): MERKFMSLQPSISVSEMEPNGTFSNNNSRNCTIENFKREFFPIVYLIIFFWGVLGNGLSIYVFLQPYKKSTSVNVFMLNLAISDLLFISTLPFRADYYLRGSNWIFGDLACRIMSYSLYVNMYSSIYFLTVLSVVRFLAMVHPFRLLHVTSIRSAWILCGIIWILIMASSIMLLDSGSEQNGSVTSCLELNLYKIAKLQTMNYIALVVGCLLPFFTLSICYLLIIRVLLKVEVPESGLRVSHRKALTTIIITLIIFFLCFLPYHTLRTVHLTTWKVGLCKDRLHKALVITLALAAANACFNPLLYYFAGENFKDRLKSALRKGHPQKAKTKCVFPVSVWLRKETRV
Method: as §1, §2

T3 sequence (P43119 whole entry): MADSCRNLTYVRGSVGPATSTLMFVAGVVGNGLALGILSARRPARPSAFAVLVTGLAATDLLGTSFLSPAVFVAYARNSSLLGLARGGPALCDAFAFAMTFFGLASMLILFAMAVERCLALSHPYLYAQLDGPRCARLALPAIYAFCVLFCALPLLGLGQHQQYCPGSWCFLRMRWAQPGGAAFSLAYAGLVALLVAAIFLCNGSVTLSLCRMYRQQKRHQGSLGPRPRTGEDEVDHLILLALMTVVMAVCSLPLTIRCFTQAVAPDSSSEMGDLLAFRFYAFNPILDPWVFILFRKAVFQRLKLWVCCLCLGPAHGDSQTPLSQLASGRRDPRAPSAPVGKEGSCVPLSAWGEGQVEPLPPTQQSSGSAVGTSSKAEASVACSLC
T2 sequence (Q9Y5N1 whole entry): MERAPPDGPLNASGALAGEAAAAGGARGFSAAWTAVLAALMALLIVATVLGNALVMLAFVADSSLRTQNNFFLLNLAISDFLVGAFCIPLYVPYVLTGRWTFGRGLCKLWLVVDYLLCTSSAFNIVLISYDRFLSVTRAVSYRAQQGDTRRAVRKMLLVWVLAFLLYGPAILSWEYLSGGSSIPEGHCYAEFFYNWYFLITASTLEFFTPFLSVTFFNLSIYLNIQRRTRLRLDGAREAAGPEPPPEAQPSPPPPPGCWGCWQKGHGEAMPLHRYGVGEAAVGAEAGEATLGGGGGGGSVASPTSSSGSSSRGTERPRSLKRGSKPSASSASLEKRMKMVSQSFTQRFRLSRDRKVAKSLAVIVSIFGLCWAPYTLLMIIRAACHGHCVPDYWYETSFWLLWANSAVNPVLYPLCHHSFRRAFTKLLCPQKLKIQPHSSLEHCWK
T5 sequence (Q99835 28-787): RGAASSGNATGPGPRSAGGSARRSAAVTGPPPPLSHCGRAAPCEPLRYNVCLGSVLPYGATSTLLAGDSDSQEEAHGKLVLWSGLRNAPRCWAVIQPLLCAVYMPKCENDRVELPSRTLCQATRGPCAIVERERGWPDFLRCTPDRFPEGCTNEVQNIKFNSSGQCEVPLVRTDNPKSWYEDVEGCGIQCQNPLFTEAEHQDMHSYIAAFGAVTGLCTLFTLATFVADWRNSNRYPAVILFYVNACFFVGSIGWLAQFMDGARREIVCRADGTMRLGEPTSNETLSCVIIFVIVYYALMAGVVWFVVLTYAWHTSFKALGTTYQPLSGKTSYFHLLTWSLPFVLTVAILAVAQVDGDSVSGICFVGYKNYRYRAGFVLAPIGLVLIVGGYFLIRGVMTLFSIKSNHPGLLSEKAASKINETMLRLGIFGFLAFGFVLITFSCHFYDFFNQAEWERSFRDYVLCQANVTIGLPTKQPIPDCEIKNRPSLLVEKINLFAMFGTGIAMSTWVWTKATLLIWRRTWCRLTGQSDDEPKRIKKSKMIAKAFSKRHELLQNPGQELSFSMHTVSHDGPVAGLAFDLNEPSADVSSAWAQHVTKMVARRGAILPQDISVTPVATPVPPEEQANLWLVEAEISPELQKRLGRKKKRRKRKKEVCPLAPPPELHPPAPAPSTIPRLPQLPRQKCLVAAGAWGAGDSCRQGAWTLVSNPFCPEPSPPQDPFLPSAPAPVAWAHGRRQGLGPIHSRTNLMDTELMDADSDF

Row | SMILES | NanoBRET Fold Response ([3]; 0.1μM tracer) | NanoBRET Fold Response ([3]; 1μM tracer) | NanoBRET Fold Response ([4]; 0.1μM tracer) | NanoBRET Fold Response ([4]; 1μM tracer) | NanoBRET Fold Response ([5]; 0.1μM tracer) | NanoBRET Fold Response ([5]; 1μM tracer) | NanoBRET Fold Response ([1]; 0.1μM tracer) | NanoBRET Fold Response ([1]; 1μM tracer) | NanoBRET Fold Response ([2]; 0.1μM tracer) | NanoBRET Fold Response ([2]; 1μM tracer) | NanoBRET Fold Response ([6]; 0.1μM tracer) | NanoBRET Fold Response ([6]; 1μM tracer) | other results
1 | CN(CCC=C1c2ccccc2CCc2ccccc21)C(=O)CCOCCOCCOCCOCCNC(=O)CCc1ccc2n1[B-](F)(F)[N+]1=C(c3ccc[nH]3)C=CC1=C2 [Amitriptyline-e-2-NB590] | – | – | – | – | – | – | – | – | – | – | – | – | NanoBRET Fold Response ([1]; tracer at 1μM): 0.97; NanoBRET Fold Response ([2]; tracer at 1μM): 0.95
2 | COc1ccc2c(n1)c(CCNC(C)=O)cn2CCNC(=O)CCc1ccc2n1[B-](F)(F)[N+]1=C(c3ccc[nH]3)C=CC1=C2 [Azamelatonin-1-NB590] | 0.94 | 1.06 | 0.84 | 0.94 | 0.82 | 1.37 | 0.91 | 0.81 | 1.07 | 1.07 | 1.37 | 0.46 | –
3 | COc1ccc2[nH]c(-c3ccc(CNC(=O)CCOCCOCCOCCOCCNC(=O)CCc4ccc5n4[B-](F)(F)[N+]4=C(c6ccc[nH]6)C=CC4=C5)cc3)c(CCNC(C)=O)c2n1 [AzomelatoninICO9-2-NB590] | 1.03 | 0.98 | 1.27 | 0.99 | 0.86 | 1.25 | 1.23 | 0.96 | 1.09 | 1.03 | 1.03 | 1.06 | –
4 | O=C(CCOCCOCCOCCOCCNC(=O)CCc1ccc2n1[B-](F)(F)[N+]1=C(c3ccc[nH]3)C=CC1=C2)NCCCN1CCN(C2=Nc3cc(Cl)ccc3Nc3ccccc32)CC1 [Clozapine-a-2-NB590] | – | – | – | – | – | – | – | – | – | – | – | – | NanoBRET Fold Response ([3]; PTGIR, 0.1μM tracer): 1.04; NanoBRET Fold Response ([3]; PTGIR, 1μM tracer): 0.98; NanoBRET Fold Response ([4]; TBXA2R, 0.1μM tracer): 1.08; NanoBRET Fold Response ([4]; TBXA2R, 1μM tracer): 1.08; NanoBRET Fold Response ([5]; SMO, 0.1μM tracer): 1.00; NanoBRET Fold Response ([5]; SMO, 1μM tracer): 0.64; NanoBRET Fold Response ([1]; CCR4, 0.1μM tracer): 1.05; NanoBRET Fold Response ([1]; CCR4, 1μM tracer): 0.85; NanoBRET Fold Response ([2]; HRH3, 0.1μM tracer): 0.97; NanoBRET Fold Response ([2]; HRH3, 1μM tracer): 0.91; NanoBRET Fold Response ([6]; CYSLTR2, 0.1μM tracer): 0.99; NanoBRET Fold Response ([6]; CYSLTR2, 1μM tracer): 1.03
5 | COc1ccccc1N1CCN(CCCCN2C(=O)c3ccc(CNC(=O)CCOCCOCCOCCOCCNC(=O)CCc4ccc5n4[B-](F)(F)[N+]4=C(c6ccc[nH]6)C=CC4=C5)cc3C2=O)CC1 [NAN-190-2-NB590] | – | – | – | – | – | – | – | – | – | – | – | – | NanoBRET Fold Response ([3]; PTGIR, tracer 0.1μM): 0.99; NanoBRET Fold Response ([3]; PTGIR, tracer 1μM): 1.02; NanoBRET Fold Response ([4]; TBXA2R, tracer 0.1μM): 1.07; NanoBRET Fold Response ([4]; TBXA2R, tracer 1μM): 1.06; NanoBRET Fold Response ([5]; SMO, tracer 0.1μM): 1.11; NanoBRET Fold Response ([5]; SMO, tracer 1μM): 1.11; NanoBRET Fold Response ([1]; CCR4, tracer 0.1μM): 0.98; NanoBRET Fold Response ([1]; CCR4, tracer 1μM): 1.12; NanoBRET Fold Response ([2]; HRH3, tracer 0.1μM): 0.98; NanoBRET Fold Response ([2]; HRH3, tracer 1μM): 0.97
